Assay results reported in article PMC7200709, “The mechanism of loop C-neonicotinoid interactions at insect nicotinic acetylcholine receptor α1 subunit predicts resistance emergence in pests” (Scientific Reports, 2020).
Like-named read-outs stand apart in the source and are kept apart here.

Experiments:
(Dα1)3(β2)2 nAChR = target: T1, (Dα1)3(β2)2 nAChR (Drosophila melanogaster, UniProt P09478+P09484); assay: two-electrode voltage clamp, Xenopus oocytes, agonist concentration-response; type: cell-based
T1 construct: gene nAChRalpha1; fruitfly Dα1 and chicken β2 cDNAs in pcDNA3.1(+), cRNA mixed 5:1 (Dα1:β2), Xenopus laevis oocytes; hybrid pentamer with Dα1/Dα1 and Dα1/β2 interfaces
From the text: two-electrode voltage clamp, Xenopus oocytes, agonist concentration-response on (Dα1)3(β2)2 nAChR

(Dα1)2(β2)3 nAChR = target: T2, (Dα1)2(β2)3 nAChR (Drosophila melanogaster, UniProt P09478+P09484); assay: as above; type: cell-based
T2 construct: gene nAChRalpha1; fruitfly Dα1 and chicken β2 cDNAs in pcDNA3.1(+), cRNA mixed 1:5 (Dα1:β2), Xenopus laevis oocytes; hybrid pentamer with Dα1/β2 interfaces
From the text: two-electrode voltage clamp, Xenopus oocytes, agonist concentration-response on (Dα1)2(β2)3 nAChR

T1 sequence (P09478 22-567): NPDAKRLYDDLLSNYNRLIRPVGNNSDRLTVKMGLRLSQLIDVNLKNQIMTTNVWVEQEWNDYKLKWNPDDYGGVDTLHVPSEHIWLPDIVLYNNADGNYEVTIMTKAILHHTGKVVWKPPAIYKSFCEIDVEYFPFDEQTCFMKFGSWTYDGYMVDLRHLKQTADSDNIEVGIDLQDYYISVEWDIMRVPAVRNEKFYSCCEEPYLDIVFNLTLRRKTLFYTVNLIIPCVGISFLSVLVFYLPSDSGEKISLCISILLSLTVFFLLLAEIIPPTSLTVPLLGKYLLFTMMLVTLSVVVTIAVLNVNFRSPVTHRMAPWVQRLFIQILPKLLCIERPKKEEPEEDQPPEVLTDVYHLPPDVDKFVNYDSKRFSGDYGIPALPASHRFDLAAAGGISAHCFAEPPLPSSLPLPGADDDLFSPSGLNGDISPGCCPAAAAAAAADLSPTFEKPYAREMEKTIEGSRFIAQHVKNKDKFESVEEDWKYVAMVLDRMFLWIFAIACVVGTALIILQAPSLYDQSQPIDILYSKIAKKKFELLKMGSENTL
T1 sequence (P09484 19-491): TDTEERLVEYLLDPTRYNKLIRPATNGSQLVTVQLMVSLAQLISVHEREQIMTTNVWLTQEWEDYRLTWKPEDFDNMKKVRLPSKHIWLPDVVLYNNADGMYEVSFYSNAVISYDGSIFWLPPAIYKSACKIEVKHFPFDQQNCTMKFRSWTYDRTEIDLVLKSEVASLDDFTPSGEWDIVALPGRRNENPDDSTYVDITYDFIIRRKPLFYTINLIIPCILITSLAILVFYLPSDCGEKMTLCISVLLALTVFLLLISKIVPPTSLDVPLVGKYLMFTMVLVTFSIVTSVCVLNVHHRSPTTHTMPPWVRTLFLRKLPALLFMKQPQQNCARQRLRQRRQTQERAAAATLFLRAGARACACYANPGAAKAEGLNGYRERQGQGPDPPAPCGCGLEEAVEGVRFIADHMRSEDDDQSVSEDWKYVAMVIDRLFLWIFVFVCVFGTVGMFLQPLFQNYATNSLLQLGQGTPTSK
T2 sequence (P09478 22-567): as the sequence (P09478 22-567) above
T2 sequence (P09484 19-491): as the sequence (P09484 19-491) above

Q: With `N#C/N=C1\SCCN1Cc1ccc(Cl)nc1` [thiacloprid] as the compound, how does the EC50 ((Dα1)3(β2)2 nAChR; read-out: Thiacloprid / (Dα1)3(β2)2 / pEC50 (converted)) read?
A: 45.7 nM

Q: What about the EC50 ((Dα1)2(β2)3 nAChR; read-out: Thiacloprid / (Dα1)2(β2)3 / pEC50 (converted)) of the same compound?
A: 24.5 nM

Q: Which results are given for `O=[N+]([O-])NC1=NCCN1Cc1ccc(Cl)nc1` [imidacloprid]?
A: EC50 ((Dα1)3(β2)2 nAChR; read-out: Imidacloprid / (Dα1)3(β2)2 / pEC50 (converted)): 162 nM; EC50 ((Dα1)2(β2)3 nAChR; read-out: Imidacloprid / (Dα1)2(β2)3 / pEC50 (converted)): 112 nM

Q: For `CC(=O)OCC[N+](C)(C)C` [ACh], which EC50 ((Dα1)3(β2)2 nAChR; read-out: (Dα1)3(β2)2 / pEC50 (converted)) is on record?
A: 155 nM

Q: What about the EC50 ((Dα1)2(β2)3 nAChR; read-out: (Dα1)2(β2)3 / pEC50 (converted)) of the same compound?
A: 162 nM
